Test results: patent publication US6368580B1, “Composition suitable as food integrator and for the treatment of intestinal disorders and alterations of the bacterial flora” (Giuliani S.p.A, priority 1999, dated 2002)
“Also recorded” adds a separate entry of the source.

Legend:
Bacillus coagulans [1] = test: Growth of Bacillus coagulans in Sabouraud's broth with added nutrient, optical density by biophotometer; type: cell-based; conditions: for increase in growth of Bacillus coagulans (optical density A630), preliminary evaluations of amino acids: aspartic acid, proline, lysine, tryptophan compared, biophotometer
Description: Consequently, microbiological tests have been conducted by adding a number of amino acids (particularly aspartic acid, lysine, proline) to the culture medium specific for Lactobacillus. […] Evaluation of the growth of Bacillus coagulans was performed using and agar/Sabouraud's broth to which 0.5% of yeast extract was added. At this point, an attempt was made to determine which of the various amino acid components present in the yeast (aspartic acid, proline, lysine, tryptophan), and in what concentrations, were able to favor more vigorous development of the microorganism. The increase in growth was evaluated by biophotometer which recorded the optical density (A630).
In special sterilized cuvettes for biophotometry, broth cultures were prepared, with the addition to the base culture medium (10 ml of Sabouraud's broth) of: […]
One cuvette containing Sabouraud's broth alone was used as control. Each of the four broth cultures was subsequently inoculated with 100 μl of a dilution of a broth culture (overnight incubation) of Bacillus coagulans made starting from the lyophilized powder (final concentration of 10^4 cfu/ml).
The growth of the culture was evaluated in terms of optical density, using a biophotometer, which is capable of determining the degree of development on the basis of the increase in turbidity. The curvettes thus prepared were set inside the compartment of the instrument in the presence of a magnetic stirrer that was able to keep the culture in uniform suspension, a condition which enables a proper reading of the turbidity of the culture medium to be made.
The optical density appears on the ordinate, the values proportional to the number of bacteria produced. The time is given on the abscissa. The four curves shown on the graph identify the behavior, respectively, of lysine (at a concentration of 0.025 mg/ml), yeast (5 mg/ml), proline (0.01 mg/ml), and the Sabouraud's culture medium reference standard.

Bacillus coagulans [2] = test: Lactic acid (L+) production in Bacillus coagulans broth culture; type: cell-based; conditions: 24-hour broth culture to which lysine was added; higher than blank controls or other amino acids

Compound	growth of the Lactobacillus cells and formation of lactic acid (L+) (Bacillus coagulans [1]; amino acid added to the culture medium, lysine at concentrations of the order of 0.1-1 mg/ml)	increase in growth of Bacillus coagulans (optical density A630), preliminary evaluations of amino acids (Bacillus coagulans [1])	growth of Bacillus coagulans (optical density, growth curve) (Bacillus coagulans [1]; lysine 0.025 mg/ml in Sabouraud's broth, overnight incubation at 37° C., compared with proline 0.01 mg/ml, yeast 5 mg/ml, broth alone)	lactic acid (L+) production (Bacillus coagulans [2]) [mg/L]
NCCCC[C@H](N)C(=O)O [lysine]	enhanced the growth of the Lactobacillus cells and the formation of lactic acid (L^+)	best results	most effective nutrient; also recorded: significantly increases the growth curve, reducing the latency phase and increasing the number of cells	486
O=C(O)[C@@H]1CCCN1 [proline, reference compound]		best results		
